Experimental data reported in patent publication US20150038430A1, “THERAPEUTIC PEPTIDOMIMETIC MACROCYCLES” (AILERON Therapeutics, Inc., priority 2008, published 2015).
Numbered stars: 1 amine (or outer) side, 2 acyl side, 3 side chain; on linkers, the order of the positions; unused ones are H or OH. Bridge positions count the residues as written; N and C are the ends. Square brackets hold non-standard residues; d marks the D form. Peptide text beside a SMILES is read from it. ξ: configuration not given here. ξαMeNle(6-ylidene) = CC(CCCC=[*:3])(N[*:1])C(=O)[*:2]; Nle = CCCC[C@H](N)C(=O)O

Tests used:
[1] = target: Bcl-xL (Homo sapiens, UniProt Q07817); experiment: Kd, μM | Bcl-xL
Chain of Bcl-xL (Q07817 whole entry, looked up): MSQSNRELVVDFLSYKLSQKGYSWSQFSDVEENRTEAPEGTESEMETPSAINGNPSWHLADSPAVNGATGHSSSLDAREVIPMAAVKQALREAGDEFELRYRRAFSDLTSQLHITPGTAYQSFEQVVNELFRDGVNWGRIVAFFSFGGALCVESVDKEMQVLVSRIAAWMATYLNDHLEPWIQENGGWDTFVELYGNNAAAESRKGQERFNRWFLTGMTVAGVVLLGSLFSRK
Text: (§1) Table printed on a drawing sheet, Figure 27
Head of the field: Kd, μM | Bcl-xL
Where the first naming reader finds the target: head: Kd, μM | Bcl-xL

[2] = target: Bcl-2; experiment: Kd, μM | Bcl-2
Text: as §1
Head of the field: Kd, μM | Bcl-2
(§2) First copying reader's note: The last row (ABT-737) is a small-molecule comparator; the three plots above the table are not copied.
Where the first naming reader finds the target: head: Kd, μM | Bcl-2

[3] = system: A-549; experiment: MTT cell viability assay, A-549; type: cell-based, human; conditions: 20 μM, MTT 48 hrs, FIG. 1
Experimental: (§3) Cell viability assays shown in FIGS. 1-32 were performed according to the following protocol. Tumor cell lines were grown in specific serum-supplemented media (growth media) as necessary. A day prior to the initiation of the study, cells were plated at optimal cell density (15,000 to 25,000 cells/well) in 200 μl growth media in microtiter plates. The next day, cells were washed twice in serum-free/phenol red-free RPMI complete media (assay buffer) and a final volume of 100 μl assay buffer was added to each well. Human peripheral blood lymphocytes (hPBLs) were isolated from Buffy coats (San Diego Blood Bank) using Ficoll-Paque gradient separation and plated on the day of the experiment at 25,000 cells/well.
(§4) Peptidomimetic macrocycles were diluted from 1 mM stocks (100% DMSO) in sterile water to prepare 400 μM working solutions. The peptidomimetic macrocycles and controls were then diluted 10 or […] or alternatively serially two-fold diluted in assay buffer in dosing plates to provide concentrations of either 40 and 20 μM or between 1.2 and 40 μM, respectively. […]
(§5) Towards the end of the 4 hour incubation time, 22 μl FBS was added to each well for a total concentration of 10% FBS. […] At the end of the incubation period, MTT assay was performed according to manufacturer's instructions (Sigma, catalog #M2128) and absorbance was measured at 560 nm using Dynex Opsys MR Plate reader. […]

[4] = system: H-460; experiment: MTT cell viability assay, H-460; type: cell-based, human; conditions: 20 μM, MTT 48 hrs, FIG. 1
Experimental: as §3, §4, §5

[5] = target: Mcl-1; experiment: Kd, μM | Mcl-1
Text: as §1
Head of the field: Kd, μM | Mcl-1
as §2
Where the first naming reader finds the target: head: Kd, μM | Mcl-1

[6] = system: SEMK2 human leukemia xenograft; experiment: SEMK2 human leukemia xenograft model; type: in vivo, NOD-SCID mice; conditions: daily tail vein injection, 3, 10 or 30 mg/Kg/day
Experimental: To determine the anti-oncogenic activity of peptidomimetic macrocycles of the invention in vivo, the compounds are, for example, given alone (IP, IV, SC, PO, by inhalation or nasal routes) or in combination with sub-optimal doses of relevant chemotherapy (e.g., cyclophosphamide, doxorubicin, etoposide). In one example, 5×10^6 SEMK2 cells (established from the bone marrow of a patient with acute lymphoblastic leukemia) that stably express luciferase are injected by tail vein in NOD-SCID, SCID-beige or NOD.IL2rg KO mice 3 hrs after they have been subjected to total body irradiation. Non-radiated mice may also be used for these studies. If left untreated, this form of leukemia is fatal in 3 weeks in this model. The leukemia is readily monitored, for example, by injecting the mice with D-luciferin (60 mg/kg) and imaging the anesthetized animals (e.g., Xenogen In Vivo Imaging System, Caliper Life Sciences, Hopkinton, Mass.). Total body bioluminescence is quantified by integration of photonic flux (photons/sec) by Living Image Software (Caliper Life Sciences, Hopkinton, Mass.). […] Optionally, the mice are imaged throughout the experiment every other day and survival monitored daily for the duration of the experiment. […]

[7] = system: MCF7; experiment: MTT cell viability assay, MCF7; type: cell-based, human; conditions: 20 μM, MTT 48 hrs, FIG. 1
Experimental: as §3, §4, §5

[8] = system: activated hPBLs; experiment: BrdU cell proliferation assay; type: cell-based, human; conditions: hPBLs activated by PMA+ionomycin+LPS; 5 or 20 μM, 48 hrs; compared with 1 μM Rapamycin
Experimental: […] 1 μM Rapamycin was used as a positive control to inhibit BrdU incorporation. BrdU incorporation was assayed by ELISA according to manufacturer's instructions (Roche, catalog number 11444611001).

CCCC[C@H](NC(=O)C1(C)CCCC=CCCCC(C)(NC(=O)[C@H](C)NC(=O)[C@H](CC(C)C)NC(=O)[C@H](Cc2c[nH]cn2)NC(=O)[C@H](CCCNC(=N)N)NC(=O)[C@H](C)NC(=O)[C@@H](NC(=O)[C@H](CC(N)=O)NC(=O)[C@H](CCCNC(=N)N)NC(=O)[C@@H](NC(=O)[C@@H](NC(=O)[C@H](CC(=O)O)NC(C)=O)[C@@H](C)CC)[C@@H](C)CC)[C@@H](C)CC)C(=O)N[C@@H](C(C)C)C(=O)NCC(=O)N[C@@H](CC(=O)O)C(=O)N1)C(=O)N[C@@H](CC(=O)O)C(=O)N[C@@H](CCCNC(=N)N)C(=O)N[C@@H](CO)C(=O)N[C@H](C(N)=O)[C@@H](C)CC (some centres unmarked) [SP-1] (Ac-DIIRNIARHLA[ξαMeNle(6-ylidene)]VGD[ξαMeNle(6-ylidene)][Nle]DRSI-NH2; staple 12-16)
Kd [1]: < 0.1 µM
Kd [2]: 1 µM
sensitivity of A-549 (NSCLC) [3]: resistant
sensitivity of H-460 (NSCLC) [4]: resistant
Kd [5]: < 0.1 µM
tumor burden / tumor progression (total body bioluminescence) [6]: decreases tumor burden
sensitivity of MCF7 (breast cancer) [7]: resistant
blocking the proliferation of activated hPBLs (BrdU incorporation) [8]: as effective as rapamycin
